The results in this text go back to BindingDB's records for doi:10.1021/acs.jmedchem.9b00359 (Shandong University, 2019).

The EC50 is the midpoint of the concentration-response curve.

The structures appear in SMILES notation. Bounds are passed on as bounds.

A short description of this assay: Inhibition of HIV1 reverse transcriptase p66/p51 K103N/Y181C mutant infected in human MT2 cells assessed as reduction in viral infection incubated for 5 days.

With `Cc1c(Oc2ccccc2OCCn2ccc(=O)[nH]c2=O)cc(N(C)C(=O)CF)c2ccc(C#N)cc12`, the EC50 is 15 µM.
Consider `C=CC(=O)N(C)c1cc(Oc2ccccc2OCCn2ccc(=O)[nH]c2=O)c(C)c2cc(C#N)ccc12`, for which the EC50 stood at 0.5 µM.
For the compound `C=CC(=O)Nc1cc(Oc2ccccc2OCCn2ccc(=O)[nH]c2=O)c(C)c2cc(C#N)ccc12`, the EC50 was more than 12 µM.
